Assay [1] concerns yeast-induced fever. In words: Antipyretic activity on yeast-induced fever in rats. It is filed as in vivo, rats (Wistar, male). Conditions: rat, 2 hours after administration. On the procedure:
Measurement of Antipyretic Activity on Yeast-Induced Fever in Rats
Wistar Strain male rats (150-190 g) were fasted for one day before the experiment, and were used. Compounds of number (1) and (2) in Table 1 were formed to the tartaric acid salt and these salts were dissolved in 0.9% physiological saline solution at the rate of 10 mg/10 ml and these solution were used as test compound solution. In a control, 0.9% physiological saline solution was used. After rat rectal temperature was measured, 1 ml/100 g of body weight of 7.5% yeast/0.9% physiological saline solution was injected s.c. at dorsal position. Then, rat rectal temperature was measured at 4 hour after the injection of yeast and rats showing the increase rectal temperature by 1 degree or more were selected and used. Test compound solution was administered s.c. at 5 hours after the injection of yeast. The rectal temperature was measured 2 hours after the administration of test compound solution. The results were described with the difference between the rectal temperature before and after the administration of test compound solution.

In assay [2] the test system is nociceptive response (licking). In words: Analgesic activity by the hot-plate method. It is filed as in vivo, mice (Std:ddY, male). The following applies: mouse, 52° C. plate, solution 10 mg/10 ml, mean ± standard error. The procedure: Measurement of Analgesic Activity by the Hot-Plate Method
Std:ddY Strain male mice (20-25 g) were fasted for one day before the experiment, and were used. After compounds shown in Table 1 were formed to the tartaric acid salts, these compounds were dissolved in 0.9% physiologocal saline solution at the rate of 10 mg/10 ml, respectively and these solution were used as test compound solution. In a control, 0.9% physiological saline solution was used. Mice were placed on a cyrindric hot plate (diameter: 22 cm, height: 11 cm) made of copper which was fixed in a water bath adjusted to 52° C. so that each animal's four paws came into contact with the plate and the time taken to show the nociceptive response (licking) as an index of pain was measured. Mice showing response latency above 25 seconds were excluded from the experiment. To prevent a burn damage of mouse tissue by heating, cutoff time of 50 seconds was defined. The results were described as an inhibition rate (%) obtained from the following equation.
Inhibition rate (%)=(A-B)×100/(50-B)
A: Response latency (seconds) after the administration of test compound solution
B: Response latency (seconds) before the administration of test compound solution

The subject of assay [3] is pain threshold (tail-pressure). Put plainly: Tail-pressure method, comparison with morphine (i.v.). It is filed as in vivo, mice (Std:ddY, male). The following applies: for Inhibition rate: mean ± standard error. The procedure: (2) Comparison with Morphine
Std:ddY Strain male mice (20-25 g) were fasted for one day before the experiment, and were used. In this experiment, the tartaric acid salt of a compound of number (2) in Table 1 and morphine hydrochloride as a possitive control were used. This tartaric acid salt was dissolved in 0.9% physiological saline solution at the rates of 5 mg/2 ml, 3 mg/2 ml and 1 mg/2 ml. Morphine hydrochloride was dissolved in 0.9% physiological saline solution at the rates of 5 mg/2 ml, 3 mg/2 ml and 1 mg/2 ml. As a negative control, 0.9% phisiological saline solution was used. A tail-pressure apparatus was used in this experiments. Before the administration of test compounds, the pain threshold was measured twice at intervals of 30 minutes and those mice indicating a pain threshold of 50 to 100 mmHg were selected and used. The pain threshold of each mouse was measured at 10, 20 and 30 minutes after test compound solution mentioned above was administered at 2 ml/kg, i.v. 0.9% Physiological saline solution as a control was administered i.v. The results were described as an inhibition rate (%) indicating in the preceding paragraph (1).

Assay [4] has as its system pain threshold (tail-pressure). In words: Tail-pressure method, experiment combined with morphine antagonist (levallorphan). It is filed as in vivo, mice (Std:ddY, male). The following applies: 10 mg/kg i.v., mean ± standard error. The procedure: (4) Experiment Combined with Morphine Antagonist
Std:ddY Strain male mice (20-25 g) were fasted for one day before the experiment, and were used. In this experiment, the tartaric acid salt of a compound of number (2) in Table 1, morphine hydrochloride and levallorphan hydrochloride of an opioid antagonist were used. The tartaric acid salt of a compound of number (2) was dissolved in 0.9% physiological saline solution at the rate of 10 mg/2 ml. Morphine hydrochloride was dissolved in 0.9% physiological saline solution at the rate of 10 mg/2 ml. Levallorphan hydrochloride was dissolved in 0.9% physiological saline solution at the rate of 1 mg/10 ml. As a control, 0.9% physiological saline solution was used. A tail-pressure apparatus was used in this experiments. Before the administration of levallorphan hydrochloride, the pain threshold was measured twice at intervals of 30 minutes and those mice indicating a pain threshold of 50 to 100 mmHg were selected and used. Levallorphan hydrochloride solution mentioned above was administered s.c. at the rate of 10 ml/kg and, 30 minutes later, the above tartaric acid salt solution compound of number (2) or morphine hydrochloride solution was injected i.v. at the rate of 2 ml/kg, respectively. Each pain threshold was measured 10, 20 and 30 minutes after an intravenous injection. In control group, 0.9% physiological saline solution was injected i.v. at the rate of 2 ml/kg at 30 minutes after s.c. administration at 10 ml/kg of 0.9% physiological saline solution. In the single administration group of levallorphan hydrochloride, levallorphan hydrochloride solution mentioned above was administered s.c. at the rate of 10 ml/kg and, 30 minutes later, 0.9% physiological saline solution was injected i.v. at the rate of 2 ml/kg. The results were described in Table 10 as an inhibition rate (%) indicating in the preceding paragraph (1).

Structures are written as SMILES.

Consider `CCN1CC2(COC)C(O)CC(OC)C34C5CC6(O)C(OC)C(OC(C)=O)C(O)(C5C6OC(=O)c5ccc(Cl)cc5)C(C(OC)C23)C14` (centres unmarked) [(2), 15-O-acetyl-14-O-p-chlorobenzoylaconine], for which the figures for the “Change of rectal temperature” value in assay [1] (1 mg/kg s.c.), in assay [1] (3 mg/kg s.c.) and in assay [1] (10 mg/kg s.c.) were 1.5 ± 0.2 °C, 0.5 ± 0.2 °C and 0.3 ± 0.1 °C, respectively. For the same compound, in assay [2], the “Inhibition rate (hot-plate method)” value was found to be 76 ± 11%. Besides, the Inhibition rate is 5 ± 4% in assay [3] (1 mg/kg i.v., 10 minutes); 4 ± 4% in assay [3] (1 mg/kg i.v., 20 minutes); 2 ± 3% in assay [3] (1 mg/kg i.v., 30 minutes); 14 ± 15% in assay [3] (3 mg/kg i.v., 10 minutes); 16 ± 10% in assay [3] (3 mg/kg i.v., 20 minutes); 12 ± 12% in assay [3] (3 mg/kg i.v., 30 minutes). Also, the Inhibition rate came out at 38 ± 13% in assay [3] (5 mg/kg i.v., 10 minutes); 27 ± 6% in assay [3] (5 mg/kg i.v., 20 minutes); 22 ± 7% in assay [3] (5 mg/kg i.v., 30 minutes); 86 ± 25% in assay [4] (with levallorphan 1 mg/kg s.c. 30 minutes before, 10 min); 77 ± 14% in assay [4] (with levallorphan 1 mg/kg s.c. 30 minutes before, 20 min); 67 ± 22% in assay [4] (with levallorphan 1 mg/kg s.c. 30 minutes before, 30 min). Besides, the Inhibition rate was 85 ± 15% in assay [4] (without levallorphan, 10 min); 80 ± 20% in assay [4] (without levallorphan, 20 min); 65 ± 21% in assay [4] (without levallorphan, 30 min). In assay [3] (mouse, i.v.), the “analgesic activity compared with morphine, in words” value is “had an equal analgesic activity in its strength to morphine”.

Source of the values: patent US5770604A, “Aconitine compound and an antipyretic/analgesic/anti-inflammatory agent” (priority 1994, dated 1998).
